Data reported in patent US7452865B2, “Antagonistic analogs of GH RH (2003)” (The Administrare's of the Tulane Educational Fund, priority 2004, dated 2008).
Where “and” joins values, the source holds several entries; their conditions need not be identical. Equal values may be shown once. Marks after values point to notes of the source that are not given here. One block for each molecule: values may come before it. Square brackets hold non-standard residues; d marks the D form. Peptide text beside a SMILES is read from it. * marks the point of attachment. Phe(4-Cl) = N[C@@H](Cc1ccc(Cl)cc1)C(=O)O; hArg = N=C(N)NCCCC[C@H](N)C(=O)O; Nle = CCCC[C@H](N)C(=O)O; Abu = CC[C@H](N)C(=O)O; PhAc = O=C(Cc1ccccc1)*

What was measured:
[1] = system: PC-3 human prostate cancer xenografts; test: PC-3 xenografts in nude mice, Experiment 3: tumor growth; assay type: in vivo
Method: Male nude mice were implanted s.c. with 3 mm^3 pieces of PC-3 human hormone-independent prostate cancer tissue on both flanks. When tumors reached a volume of approximately 65 mm^3, the mice were divided into 7 experimental groups with 8 to 9 animals in each group and received single daily injections for 28 days as follows: 1. Control (vehicle solution); 2. JV-1-38 (10 μg/day s.c.); 3. Peptide 35 (10 μg/day s.c.); 4. Peptide 36 (10 μg/day s.c.); 5. Peptide 37 (10 μd/day s.c.); 6. Peptide 39 (10 μg/day s.c.); 7. Peptide 41 (10 μg/day s.c.). Tumor volumes were measured twice a week. The experiment was ended on day 28 by sacrificing the mice under Isofurane anesthesia. Resulting tumors were cleaned, weighed, and snapfrozen until further analyses. Trunk blood was collected from the abdominal aorta and serum was separated for RIA measurement of IGF-I. Statistical analyses of the measurement results were done by ANOVA followed by Fisher test; data are presented as the means±S.E.

[2] = system: hGH-RH(1-29)NH2 induced GH release; test: Inhibition of GH release in superfused rat pituitary system; assay type: cell-based
Method in brief: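 GH output was quantified by double-antibody RIA in superfusates of rat pituitary cells. Peptides were applied for 9 min at various concentrations before a 3-min 1 nM hGH-RH(1-29)NH2 pulse, with further pulses 30–120 min later; net integral responses given as percent of the original response.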

[3] = system: GH-RH receptor isoforms on membrane fractions of human PC-3 prostate tumors; assay type: binding; conditions: general statement
Text: Ligand competition assays with ^125I-labeled GH-RH antagonist JV-1-42 were used to determine the binding affinities of GH-RH analogs to the GH-RH receptor isoforms on membrane fractions of human PC-3 prostate tumors. The methods used have been described in detail (Halmos G, Schally A V, Varga J L, Plonowski A, Rekasi Z, Czompoly T, Proc Natl Acad Sci USA 97: 10555-10560, 2000; Halmos G, Schally A V, Czompoly T, Krupa M, Varga J L, Rekasi Z, J Clin Endocrinol Metab 87: 4707-4714, 2002), hereby incorporated by reference. Briefly, radioiodinated derivatives of JV-142 are prepared by the chloramine-T method. PC-3 tumors, grown as xenografts in nude mice, are used to prepare crude membranes. PC-3 membrane homogenates are incubated with [^125I]JV-142 and increasing concentrations (10^−12 to 10^−6 M) of nonradioactive antagonist peptides as competitors. The pellet is separated by centrifugation and counted for radioactivity in a gamma-counter. The final binding affinities are estimated by K1 (dissociation constant of the inhibitor-receptor complex) and are determined by the Ligand PC and McPherson computer programs of Munson and Rodbard (P. J. Munson and D. Rodbard, Anal. Biochem. […]: 220-239, 1980). Relative affinities (R.A.) compared to reference peptides such as JV-1-36 or JV-1-38, are calculated as the ratio of K1 of the reference peptide to the K, of the tested GH-RH antagonist.

[4] = 10 μg/day s.c., 28 days, vs control
[5] = antagonist 30 nM, 1 nM hGH-RH(1-29)NH2 at 0 min
[6] = antagonist 30 nM, 1 nM hGH-RH(1-29)NH2 at 30 min
[7] = antagonist 30 nM, 1 nM hGH-RH(1-29)NH2 at 60 min
[8] = antagonist 30 nM, 1 nM hGH-RH(1-29)NH2 at 90 min
[9] = antagonist 30 nM, 1 nM hGH-RH(1-29)NH2 at 120 min

Molecule: [PhAc-Tyr^1, D-Arg^2, Phe(pCl)^6, Har^9, Phe(pNH2)^10, Abu^15, Nle^27, D-Arg^28, Har^29]hGH-RH(1-29)NH2 [Peptide 37]
- Tumor volume (mm^3) Final ([1]; 10 μg/day s.c., 28 days): 323 ± 68.0* mm^3
- Tumor volume doubling time ([1]; 10 μg/day s.c., 28 days): 12.7 ± 2.03 days
- Tumor weight ([1]; 10 μg/day s.c., 28 days): 440 ± 104 mg
- Tumor volume Final (% inhibition) [1, 4]: (57%)
- Tumor weight (% inhibition) [1, 4]: (37%)
- Tumor volume (mm^3) Initial ([1]; at start of treatment): 60.0 ± 13.0 mm^3
- GH response (% of control) 0 min [2, 5]: 33 % of control
- GH response (% of control) 30 min [2, 6]: 12 % of control
- GH response (% of control) 60 min [2, 7]: 15 % of control
- GH response (% of control) 90 min [2, 8]: 15 % of control
- GH response (% of control) 120 min [2, 9]: 19 % of control
- endocrine antagonistic potency: inhibition of the GH release stimulated by hGH-RH(1-29)NH2 (in words) ([2]; general statement, in vitro and in vivo): high endocrine antagonistic potencies

- binding affinities to the tumoral receptors for GH-RH (in words) [3]: extremely high binding affinities
Molecule: [CH3(CH2)6CO-Tyr^1, D-Arg^2, Phe(pCl)^6, Ala^8, His^9, Tyr(Et)^10, His^11, Abu^15, Nle^27, D-Arg^28, Har^29]hGH-RH(1-29)NHEt [Peptide 97]

Molecule: CCCC[C@H](NC(=O)[C@@H](NC(=O)[C@H](CC(=O)O)NC(=O)[C@H](CCC(N)=O)NC(=O)[C@H](CC(C)C)NC(=O)[C@H](CC(C)C)NC(=O)[C@H](CCCCN)NC(=O)[C@H](CCCNC(=N)N)NC(=O)[C@H](C)NC(=O)[C@H](CO)NC(=O)[C@H](CC(C)C)NC(=O)[C@H](CCC(N)=O)NC(=O)[C@H](CC)NC(=O)[C@H](CC(C)C)NC(=O)[C@@H](NC(=O)[C@H](CCCCN)NC(=O)[C@H](CCCNC(=N)N)NC(=O)[C@H](Cc1ccc(O)cc1)NC(=O)[C@H](CCCNC(=N)N)NC(=O)[C@H](CC(N)=O)NC(=O)[C@@H](NC(=O)[C@H](Cc1ccc(Cl)cc1)NC(=O)[C@@H](NC(=O)[C@H](C)NC(=O)[C@H](CC(=O)O)NC(=O)[C@@H](CCCNC(=N)N)NC(=O)[C@H](Cc1ccc(O)cc1)NC(=O)Cc1ccccc1)[C@@H](C)CC)[C@@H](C)O)C(C)C)[C@@H](C)CC)C(=O)N[C@H](CCCNC(=N)N)C(=O)N[C@@H](CCCCNC(=N)N)C(N)=O [JV-1-36, reference compound] (PhAc-Y[dR]DAI[Phe(4-Cl)]TNRYRKVL[Abu]QLSARKLLQDI[Nle][dR][hArg]-NH2; N-terminus and C-terminus assumed)
- GH response (% of control) 0 min ([2]; antagonist 10 nM, 0 min): 80 % of control
- GH response (% of control) 30 min ([2]; antagonist 10 nM, 30 min): 42 % of control
- GH response (% of control) 60 min ([2]; antagonist 10 nM, 60 min): 60 % of control
- GH response (% of control) 90 min ([2]; antagonist 10 nM, 90 min): 64 % of control
- GH response (% of control) 120 min ([2]; antagonist 10 nM, 120 min): 85 % of control
- GH response (% of control) 0 min [2, 5]: 36 % of control
- GH response (% of control) 30 min [2, 6]: 21 % of control
- GH response (% of control) 60 min [2, 7]: 25 % of control
- GH response (% of control) 90 min [2, 8]: 29 % of control
- GH response (% of control) 120 min [2, 9]: 29 % of control

Molecule: [PhAc-Tyr^1, D-Arg^2, Phe(pCl)^6, Arg^9, Cha^10, Abu^15, Nle^27, D-Arg^28, Har^29]hGH-RH(1-29)NH2 [Peptide 33]
- GH response (% of control) 0 min [2, 5]: 97 % of control
- GH response (% of control) 30 min [2, 6]: 89 % of control
- GH response (% of control) 60 min [2, 7]: 78 % of control
- GH response (% of control) 90 min [2, 8]: 97 % of control
- GH response (% of control) 120 min [2, 9]: 82 % of control

Molecule: [PhAc-Tyr^1, D-Arg^2, Phe(pCl)^6, Cit^9, Abu^15, Nle^27, Har^28, D-Arg^29]hGH-RH(1-29)NH2 [Peptide 28]
- GH response (% of control) 0 min [2, 5]: 68 % of control
- GH response (% of control) 30 min [2, 6]: 7 % of control
- GH response (% of control) 60 min [2, 7]: 8 % of control
- GH response (% of control) 90 min [2, 8]: 20 % of control
- GH response (% of control) 120 min [2, 9]: 34 % of control

Molecule: [Hca-Tyr^1, D-Arg^2, Phe(pCl)^6, Har^9, Tyr(Me)^10, Abu^15, Nle^27, D-Arg^28, Har^29, Agm^30]hGH-RH(1-30) [Peptide 59]
- GH response (% of control) 0 min [2, 5]: 72 % of control and 61 % of control and 93 % of control and 47 % of control
- GH response (% of control) 30 min [2, 6]: 49 % of control and 50 % of control and 43 % of control and 27 % of control
- GH response (% of control) 60 min [2, 7]: 46 % of control and 48 % of control and 60 % of control and 37 % of control
- GH response (% of control) 90 min [2, 8]: 38 % of control and 47 % of control and 57 % of control and 44 % of control
- GH response (% of control) 120 min [2, 9]: 76 % of control and 47 % of control

Molecule: CCCC[C@H](NC(=O)[C@@H](NC(=O)[C@H](CC(=O)O)NC(=O)[C@H](CCC(N)=O)NC(=O)[C@H](CC(C)C)NC(=O)[C@H](CC(C)C)NC(=O)[C@H](CCCCN)NC(=O)[C@H](CCCNC(=N)N)NC(=O)[C@H](C)NC(=O)[C@H](CO)NC(=O)[C@H](CC(C)C)NC(=O)[C@H](CCC(N)=O)NC(=O)[C@H](CC)NC(=O)[C@H](CC(C)C)NC(=O)[C@@H](NC(=O)[C@H](CCCCNC(=N)N)NC(=O)[C@H](CCCNC(=N)N)NC(=O)[C@H](Cc1ccc(O)cc1)NC(=O)[C@H](CCCNC(=N)N)NC(=O)[C@H](CC(N)=O)NC(=O)[C@@H](NC(=O)[C@H](Cc1ccc(Cl)cc1)NC(=O)[C@@H](NC(=O)[C@H](C)NC(=O)[C@H](CC(=O)O)NC(=O)[C@@H](CCCNC(=N)N)NC(=O)[C@H](Cc1ccc(O)cc1)NC(=O)Cc1ccccc1)[C@@H](C)CC)[C@@H](C)O)C(C)C)[C@@H](C)CC)C(=O)N[C@H](CCCNC(=N)N)C(=O)N[C@@H](CCCCNC(=N)N)C(N)=O [Peptide 43, [PhAc-Tyr^1, D-Arg^2, Phe(pC)^6, Arg^9, Har^12, Abu^15, Nle^27, D-Arg^28, Har^29]hGH-RH(1-29)NH2] (PhAc-Y[dR]DAI[Phe(4-Cl)]TNRYR[hArg]VL[Abu]QLSARKLLQDI[Nle][dR][hArg]-NH2)
- GH response (% of control) 0 min [2, 5]: 82 % of control
- GH response (% of control) 30 min [2, 6]: 74 % of control
- GH response (% of control) 60 min [2, 7]: 102 % of control
- GH response (% of control) 90 min [2, 8]: 72 % of control
- GH response (% of control) 120 min [2, 9]: 51 % of control

Molecule: [PhAc-Tyr^1, D-Arg^2, Phe(pCl)^6, Arg^9, His^10, Abu^15, Nle^27, D-Arg^28, Har^29]hGH-RH(1-29)NH2 [Peptide 32]
- GH response (% of control) 0 min [2, 5]: 28 % of control
- GH response (% of control) 30 min [2, 6]: 43 % of control
- GH response (% of control) 60 min [2, 7]: 69 % of control
- GH response (% of control) 90 min [2, 8]: 76 % of control

Molecule: [PhAc-Tyr^1, D-Arg^2, Phe(pCl)^6, Har^9, Tyr(Me)^10, Abu^15, Nle^27, D-Arg^28, Har^29, Agm^30]hGH-RH(1-30) [Peptide 60]
- GH response (% of control) 0 min [2, 5]: 73 % of control and 87 % of control
- GH response (% of control) 30 min [2, 6]: 27 % of control and 29 % of control
- GH response (% of control) 60 min [2, 7]: 34 % of control and 65 % of control
- GH response (% of control) 90 min [2, 8]: 56 % of control and 36 % of control
- GH response (% of control) 120 min [2, 9]: 42 % of control and 63 % of control
